Patent US5750782A, “Nitroaniline derivatives and their use as anti-tumour agents” (priority 1996, dated 1998)

Assays:
AA8 = assay: Growth inhibition (IC50), AA8 cells, aerobic; assay type: cell-based; conditions: 18 h exposure
Method: (§1) Growth inhibition studies were performed as described in detail elsewhere (W.R. Wilson, R.F. Anderson and W.A Denny. J Med. Chem., 1989, 32, 23; G.J. Finlay, B.C. Baguley and W.R. Wilson. Anal Biochem., 1984, 139, 172.), using 200 viable AA8 or 300 viable UV4 cells plus 5000 lethally-irradiated AA8 feeder cells per well in 96-well tissue culture dishes. AA8 and UV4 cells were maintained in logarithmic-phase growth in […] tissue culture flasks with subculture twice weekly by trypsinization. The growth medium was antibiotic-free α-MEM with 10% v/v heat-inactivated ([…], 40 min) fetal calf serum. Doubling times were approximately 14h for AA8 and 15h for UV4 cells.

UV4 = assay: Growth inhibition (IC50), UV4 cells, aerobic; assay type: cell-based; conditions: air, 18 h exposure
Method: as §1

AA8 and UV4 cell lines = assay: Ratio of IC50 values against AA8 and UV4 cell lines (HFair); assay type: cell-based; conditions: 18 h exposure
Method: as §1
Ratio of IC50 values for a compound after exposure as detailed above against AA8 and UV4 cell lines (HF=IC50 (AA8)/IC50 (UV4)).

UV4 cells = assay: Clonogenic assay, UV4 cells (CT10), aerobic and hypoxic; assay type: cell-based; conditions: for CT10 ratio (air/N2): UV4 cells, aerobic CT10/hypoxic CT10; for CT10 (UV4): air, concentration x time to reduce UV4 cell survival to 10% of control
Text: The product (in μM-hr) of the drug concentration times the exposure time to reduce cell survival to 10% of control values in the clonogenic assay.
Ratio of CT10 values after exposure of UV4 cells as detailed above under either aerobic (air) or hypoxic (N2) conditions (=aerobic CT10 /hypoxic CT10).

UV4 cell line = assay: Ratio of IC50 values against UV4 cell line in presence and absence of E. coli nitroreductase enzyme NTR-2; assay type: cell-based; conditions: air, ratio of IC50 in presence and absence of E. coli nitroreductase NTR-2, 1080 min
Method: as §1
Ratio of IC50 values for a compound after exposure as detailed above against the UV4 cell line in the presence and absence of the E. coli nitroreductase enzyme NTR-2.

V79 cells = conditions: +Nitroreductase alone (2 μg/ml); 2 h, 37° C
Method: The nitroreductase concentration was 2 μg/ml and NADH was used as a co-factor. The initial cell density was 2×10^5 /mL.

Molecule: NC(=O)c1cc(N(CCBr)CCBr)c([N+](=O)[O-])cc1[N+](=O)[O-] [Compound 2, 5-[N,N-bis(2-bromoethyl)amino]-2,4-dinitrobenzamide]
- IC50 (AA8; air): 57 µM
- IC50 (UV4): 10.9 µM
- HF (air) = IC50 (AA8)/IC50 (UV4) (AA8 and UV4 cell lines): 7.5
- CT10 ratio (air/N2) (UV4 cells): 20
- CT10 (UV4) (UV4 cells): 160 μM-h
- HF (NR-2) (UV4 cell line): 32.3

Molecule: NC(=O)c1cc(N(CCI)CCI)c([N+](=O)[O-])cc1[N+](=O)[O-] [Compound 3, 5-[N,N-bis(2-iodoethyl)amino]-2,4-dinitrobenzamide]
- IC50 (AA8; air): 34 µM
- IC50 (UV4): 15 µM
- HF (air) = IC50 (AA8)/IC50 (UV4) (AA8 and UV4 cell lines): 2.6
- CT10 ratio (air/N2) (UV4 cells): 42
- CT10 (UV4) (UV4 cells): 170 μM-h
- HF (NR-2) (UV4 cell line): 73.8

Molecule: CS(=O)(=O)OCCN(CCOS(C)(=O)=O)c1cc(C(N)=O)c([N+](=O)[O-])cc1[N+](=O)[O-] [Compound 4, 5-[N,N-bis(2-methanesulfonoxyethyl)amino]-2,4-dinitrobenzamide]
- IC50 (AA8; Cricetulus griseus, CHO-AA8, air): > 200 µM
- IC50 (UV4; Cricetulus griseus): 99 µM
- CT10 ratio (air/N2) (UV4 cells): 17
- CT10 (UV4) (UV4 cells): 1200 μM-h
- HF (NR-2) (UV4 cell line): 10.0

Molecule: O=C(O)c1cc(N(CCCl)CCCl)c([N+](=O)[O-])cc1[N+](=O)[O-] [Compound 6, 5-[N,N-bis(2-chloroethyl)amino]-2,4-dinitrobenzoicacid]
- IC50 (AA8; air): 10600 µM
- IC50 (UV4): 317 µM
- HF (air) = IC50 (AA8)/IC50 (UV4) (AA8 and UV4 cell lines): 1.5
- CT10 ratio (air/N2) (UV4 cells): > 2
- CT10 (UV4) (UV4 cells): > 30000 μM-h
- HF (NR-2) (UV4 cell line): 0.76

Molecule: N#Cc1cc(N(CCCl)CCCl)c([N+](=O)[O-])cc1[N+](=O)[O-] [Compound 7, 5-[N,N-bis(2-chloroethyl)aminol]-2,4-dinitrobenzonitrile]
- IC50 (AA8; air): 24 µM
- IC50 (UV4): 2.3 µM
- HF (air) = IC50 (AA8)/IC50 (UV4) (AA8 and UV4 cell lines): 6.8
- CT10 ratio (air/N2) (UV4 cells): 8.5
- CT10 (UV4) (UV4 cells): 86 μM-h
- HF (NR-2) (UV4 cell line): 9.2

Molecule: CN(C)C(=O)c1cc(N(CCCl)CCCl)c([N+](=O)[O-])cc1[N+](=O)[O-] [Compound 9, N,N-dimethyl [N,N-bis(2-chloroethyl)amino]-2,4-dinitrobenzainide]
- IC50 (AA8; air): 310 µM
- HF (air) = IC50 (AA8)/IC50 (UV4) (AA8 and UV4 cell lines): 1.4
- CT10 ratio (air/N2) (UV4 cells): > 20
- CT10 (UV4) (UV4 cells): > 3500 μM-h

Molecule: O=C(c1cc(N(CCCl)CCCl)c([N+](=O)[O-])cc1[N+](=O)[O-])N1CCOCC1 [Compound 10, N-morpholino [N,N-bis(2-chloroethyl)amino]-2,4-dinitrobenzamiide]
- IC50 (AA8; air): 264 µM
- HF (air) = IC50 (AA8)/IC50 (UV4) (AA8 and UV4 cell lines): 23
- CT10 ratio (air/N2) (UV4 cells): 1.6
- CT10 (UV4) (UV4 cells): 156 μM-h

Molecule: O=C(NCCN1CCOCC1)c1cc(N(CCCl)CCCl)c([N+](=O)[O-])cc1[N+](=O)[O-] [Compound 12, N-[2-(morpholino)ethyl][N,N-bis(2-chloroethyl)amino]-2,4-dinitrobenzainide]
- IC50 (AA8; air): 920 µM
- HF (air) = IC50 (AA8)/IC50 (UV4) (AA8 and UV4 cell lines): 3.0
- CT10 ratio (air/N2) (UV4 cells): 45
- CT10 (UV4) (UV4 cells): 3700 μM-h

Molecule: NC(=S)c1cc(N(CCCl)CCCl)c([N+](=O)[O-])cc1[N+](=O)[O-] [Compound 13, 5-[N,N-bis(2-chloroethyl)amino]-2,4-dinitrothiobenzamide]
- IC50 (AA8; air): > 25 µM
- HF (air) = IC50 (AA8)/IC50 (UV4) (AA8 and UV4 cell lines): > 2
- CT10 ratio (air/N2) (UV4 cells): > 3
- CT10 (UV4) (UV4 cells): > 60 μM-h

Molecule: C[N+](C)([O-])CCNC(=O)c1cc(N(CCCl)CCCl)c([N+](=O)[O-])cc1[N+](=O)[O-] [Compound 14, N-(N^1,N^1-dimethylaminoethyl) [N,N-bis(2-chloroethyl)amino]-2,4-dinitrobenzamide N^1-oxide]
- IC50 (AA8; air): 7300 µM
- HF (air) = IC50 (AA8)/IC50 (UV4) (AA8 and UV4 cell lines): 1.7
- CT10 ratio (air/N2) (UV4 cells): < 10
- CT10 (UV4) (UV4 cells): < 14400 μM-h

Molecule: O=C(O)CCNC(=O)c1cc(N(CCCl)CCCl)c([N+](=O)[O-])cc1[N+](=O)[O-] [Compound 15, N-(2-carboxyethyl) 5-[N,N-bis(2-chloroethyl)amino]-2,4-dinitrobenzamide]
- IC50 (AA8; air): 6100 µM
- HF (air) = IC50 (AA8)/IC50 (UV4) (AA8 and UV4 cell lines): 1.1
- CT10 ratio (air/N2) (UV4 cells): 2
- CT10 (UV4) (UV4 cells): 14000 μM-h

Molecule: O=C(NCC(O)CO)c1cc(N(CCCl)CCCl)c([N+](=O)[O-])cc1[N+](=O)[O-] (centres unmarked) [Compound 17, N-(2,3-dihydroxypropyl)5-[N,N-bis(2-chloroethyl)amino]-2,4-dinitrobenzarnide]
- IC50 (AA8; air): 1790 µM
- HF (air) = IC50 (AA8)/IC50 (UV4) (AA8 and UV4 cell lines): 3.2
- CT10 ratio (air/N2) (UV4 cells): 14
- CT10 (UV4) (UV4 cells): 3340 μM-h

Molecule: NS(=O)(=O)c1cc(N(CCCl)CCCl)c([N+](=O)[O-])cc1[N+](=O)[O-] [Compound 18, 5-[N,N-bis(2-chloroethyl)amino]-2,4-dinitrobenzenesulfonamide]
- IC50 (AA8; air): 3 µM

Molecule: NC(=O)c1cc([N+](=O)[O-])cc([N+](=O)[O-])c1N(CCCl)CCCl [Compound 19, 2-[N,N-bis(2-chloroethyl)amino]-3,5-dinitrobenzamide]
- IC50 (AA8; air): > 100 µM
- HF (air) = IC50 (AA8)/IC50 (UV4) (AA8 and UV4 cell lines): ca. 3
- CT10 ratio (air/N2) (UV4 cells): > 5
- CT10 (UV4) (UV4 cells): > 300 μM-h

Molecule: CN(C)CCNC(=O)c1cc([N+](=O)[O-])cc([N+](=O)[O-])c1N(CCCl)CCCl [Compound 20, N-(N,N-dimethylaminoethyl) 2-[N,N-bis(2-chloroethyl)amino]-3,5-dinitrobenzamide]
- IC50 (AA8; air): 150 µM
- HF (air) = IC50 (AA8)/IC50 (UV4) (AA8 and UV4 cell lines): 14
- CT10 ratio (air/N2) (UV4 cells): 36
- CT10 (UV4) (UV4 cells): 1200 μM-h

Molecule: NC(=O)c1c([N+](=O)[O-])ccc(N(CCCl)CCCl)c1[N+](=O)[O-] [Compound 21, 3-[N,N-bis(2-chloroethyl)amino]-2,6-dinitrobenzamide]
- IC50 (AA8; air): > 240 µM
- HF (air) = IC50 (AA8)/IC50 (UV4) (AA8 and UV4 cell lines): > 2
- CT10 ratio (air/N2) (UV4 cells): > 3
- CT10 (UV4) (UV4 cells): > 300 μM-h

Molecule: CN(C)CCNC(=O)c1c([N+](=O)[O-])ccc(N(CCCl)CCCl)c1[N+](=O)[O-] [Compound 22, N-(N,N-dimethylaminoethyl) 3-[N,N-bis(2-chloroethyl)amino]-2,6-dinitrobenzamide]
- IC50 (AA8; air): 426 µM
- HF (air) = IC50 (AA8)/IC50 (UV4) (AA8 and UV4 cell lines): 3.2
- CT10 ratio (air/N2) (UV4 cells): 130
- CT10 (UV4) (UV4 cells): 3600 μM-h

Molecule: NC(=O)c1cc([N+](=O)[O-])c(N(CCCl)CCCl)c([N+](=O)[O-])c1 [Compound 23, 4-[N,N-bis(2-chloroethyl)amino]-3,5-dinitrobenzamide]
- IC50 (AA8; air): 97 µM
- HF (air) = IC50 (AA8)/IC50 (UV4) (AA8 and UV4 cell lines): 1.4
- CT10 ratio (air/N2) (UV4 cells): > 1
- CT10 (UV4) (UV4 cells): > 450 μM-h

Molecule: CN(C)CCNC(=O)c1cc([N+](=O)[O-])c(N(CCCl)CCCl)c([N+](=O)[O-])c1 [Compound 24, N-(N,N-dimethylaminoethyl) 4-[N,N-bis(2-chloroethyl)amino]-3,5-dinitrobenzamide]
- IC50 (AA8; air): 62 µM
- HF (air) = IC50 (AA8)/IC50 (UV4) (AA8 and UV4 cell lines): 2.0
- CT10 ratio (air/N2) (UV4 cells): > 1
- CT10 (UV4) (UV4 cells): > 273 μM-h

B1: Nitroreductase: E. coli nitroreductase (protein, UniProt P38489 1-217, looked up)
Oxygen-insensitive NAD(P)H …: MDIISVALKRHSTKAFDASKKLTPEQAEQIKTLLQYSPSSTNSQPWHFIVASTEEGKARVAKSAAGNYVFNERKMLDASHVVVFCAKTAMDDVWLKLVVDQEDADGRFATPEAKAANDKGRKFFADMHRKDLHDDAEWMAKQVYLNVGNFLLGVAALGLDAVPIEGFDAAILDAEFGLKEKGYTSLVVVPVGHHSVEDFNATLPKSRLPQNITLTEV
- % SURVIVAL (V79 cells): 94%
